# Assay results reported in patent US6852673B2, “Herbicidal pyridine compounds” (BASF Aktiengesellschaft, priority 1998, dated 2005).
# Tests used:
# Type in all cases: in vivo
# [1] = test system: Glycine max (GLXMA); test: Pre-emergence herbicidal evaluation, soyabeans
# Excerpt: (§1) The pre-emergence herbicidal activity of the compounds of the present invention is exemplified by the following test in which the seeds of a variety of monocotyledonous and dicotyledonous plants are seperately mixed with potting soil and planted on top of approximately one inch of soil in separate pots. After planting, the pots are sprayed with the selected aqueous acetone solution containing test compound in sufficient quantity to provide the equivalent of about 0.0125 to 0.4 kg per hectare of test compound per pot. The treated pots are then placed on greenhouse benches, watered and cared for in accordance with conventional greenhouse procedures. From 2 to 4 weeks after treatment, the tests are terminated and each pot is examined and rated according to the rating system set forth below.
# [2] = test system: Ambrosia artemiisifolia (AMBEL); test: Post-emergence herbicidal evaluation, ragweed; details: rated 2 to 4 weeks after treatment
# Protocol: (§2) [table] [table] […] These acetone solutions are diluted with water and the resulting formulations applied at dosage levels equivalent of about 0.03 to 0.4 kg per hectare of test compound per pot. After spraying the plants are placed on greenhouse benches and are cared for in the usual manner, commensurate with conventional greenhouse practices. From 2 to 4 weeks after treatment, the seedling plants are examined and rated according to the rating system provided above. A rating 0 indicates growth as untreated control, a rating 9 indicates death.
# [3] = test system: Hordeum vulgare (HORVW); test: Pre-emergence herbicidal evaluation, winter barley
# Excerpt: as §1
# [4] = test system: Oryza sativum (ORYSA); test: Post-emergence herbicidal evaluation, rice; details: rated 2 to 4 weeks after treatment
# Protocol: as §2
# [5] = test system: Triticum aestivum (TRZAW); test: Pre-emergence herbicidal evaluation, winter wheat
# Excerpt: as §1
# [6] = test system: Galium aparine (GALAP); test: Post-emergence herbicidal evaluation, cleaver; details: rated 2 to 4 weeks after treatment
# Protocol: as §2
# [7] = test system: Hordeum vulgare (HORVW); test: Post-emergence herbicidal evaluation, winter barley; details: rated 2 to 4 weeks after treatment
# Protocol: as §2
# [8] = test system: Setaria viridis (SETVI); test: Post-emergence herbicidal evaluation, green foxtail; details: for SETVI rating: rated 2 to 4 weeks after treatment
# Protocol: as §2
# [9] = test system: Digitaria sanguinalis (DIGSA); test: Pre-emergence herbicidal evaluation, large crabgrass
# Excerpt: as §1
# [10] = test system: Ambrosia artemiisifolia (AMBEL); test: Pre-emergence herbicidal evaluation, ragweed
# Excerpt: as §1
# [11] = test system: Matricaria inodora (MATIN); test: Post-emergence herbicidal evaluation, mayweed; details: rated 2 to 4 weeks after treatment
# Protocol: as §2
# [12] = test system: Echinochloa grus galli (ECHCG); test: Post-emergence herbicidal evaluation, barnyard grass; details: rated 2 to 4 weeks after treatment
# Protocol: as §2
# [13] = test system: Abutilon theophrasti (ABUTH); test: Post-emergence herbicidal evaluation, velvetleaf; details: rated 2 to 4 weeks after treatment
# Protocol: as §2
# [14] = test system: Lamium purpureum (LAMPU); test: Post-emergence herbicidal evaluation, purple deadnettle; details: rated 2 to 4 weeks after treatment
# Protocol: as §2
# [15] = test system: Lamium purpureum (LAMPU); test: Pre-emergence herbicidal evaluation, purple deadnettle
# Excerpt: as §1
# [16] = test system: Digitaria sanguinalis (DIGSA); test: Post-emergence herbicidal evaluation, large crabgrass; details: rated 2 to 4 weeks after treatment
# Protocol: as §2
# [17] = test system: Echinochloa grus galli (ECHCG); test: Pre-emergence herbicidal evaluation, barnyard grass
# Excerpt: as §1
compound,measurement,setting,value
Cc1cc(OCC(F)(F)C(F)(F)F)nc(Oc2cc(C(F)(F)F)nn2C)c1 [Example 7],selectivity in soybeans,[1],quite selective
same,GLXMA rating,[1]; dose 0.013 kg/ha,0 (0 - No effect)
same,GLXMA rating,[1]; dose 0.025 kg/ha,0 (0 - No effect)
same,GLXMA rating,[1]; dose 0.1 kg/ha,2 (2 - Slight effect)
same,GLXMA rating,[1]; dose 0.4 kg/ha,3 (3 - Moderate effect)
same,AMBEL rating,[2]; dose 0.03 kg/ha,1 (1 - Trace effect)
same,AMBEL rating,[2]; dose 0.1 kg/ha,2 (2 - Slight effect)
same,AMBEL rating,[2]; dose 0.4 kg/ha,5 (5 - Definite injury)
same,HORVW rating,[3]; dose 0.013 kg/ha,0 (0 - No effect)
same,HORVW rating,[3]; dose 0.025 kg/ha,0 (0 - No effect)
same,HORVW rating,[3]; dose 0.1 kg/ha,2 (2 - Slight effect)
same,HORVW rating,[3]; dose 0.4 kg/ha,3 (3 - Moderate effect)
same,ORYSA rating,[4]; dose 0.03 kg/ha,3 (3 - Moderate effect)
same,ORYSA rating,[4]; dose 0.1 kg/ha,3 (3 - Moderate effect)
same,ORYSA rating,[4]; dose 0.4 kg/ha,3 (3 - Moderate effect)
same,TRZAW rating,[5]; dose 0.013 kg/ha,0 (0 - No effect)
same,TRZAW rating,[5]; dose 0.025 kg/ha,0 (0 - No effect)
same,TRZAW rating,[5]; dose 0.1 kg/ha,1 (1 - Trace effect)
same,TRZAW rating,[5]; dose 0.4 kg/ha,2 (2 - Slight effect)
same,GALAP rating,[6]; dose 0.03 kg/ha,3 (3 - Moderate effect)
same,GALAP rating,[6]; dose 0.1 kg/ha,5 (5 - Definite injury)
same,GALAP rating,[6]; dose 0.4 kg/ha,5 (5 - Definite injury)
same,HORVW rating,[7]; dose 0.03 kg/ha,2 (2 - Slight effect)
same,HORVW rating,[7]; dose 0.1 kg/ha,3 (3 - Moderate effect)
same,HORVW rating,[7]; dose 0.4 kg/ha,3 (3 - Moderate effect)
same,SETVI rating,[8]; dose 0.03 kg/ha,2 (2 - Slight effect)
same,SETVI rating,[8]; dose 0.1 kg/ha,4 (4 - Injury)
same,SETVI rating,[8]; dose 0.4 kg/ha,8 (8 - Approaching complete kill)
same,grass control such as Setaria virides,[8]; in barley at crop selective doses,effective
same,DIGSA rating,[9]; dose 0.013 kg/ha,0 (0 - No effect)
same,DIGSA rating,[9]; dose 0.025 kg/ha,1 (1 - Trace effect)
same,DIGSA rating,[9]; dose 0.1 kg/ha,6 (6 - Herbicidal effect)
same,DIGSA rating,[9]; dose 0.4 kg/ha,8 (8 - Approaching complete kill)
same,AMBEL rating,[10]; dose 0.025 kg/ha,1 (1 - Trace effect)
same,AMBEL rating,[10]; dose 0.1 kg/ha,6 (6 - Herbicidal effect)
same,AMBEL rating,[10]; dose 0.4 kg/ha,9 (9 - Complete kill)
same,MATIN rating,[11]; dose 0.03 kg/ha,2 (2 - Slight effect)
same,MATIN rating,[11]; dose 0.1 kg/ha,7 (7 - Good herbicidal effect)
same,MATIN rating,[11]; dose 0.4 kg/ha,8 (8 - Approaching complete kill)
same,ECHCG rating,[12]; dose 0.03 kg/ha,4 (4 - Injury)
same,ECHCG rating,[12]; dose 0.1 kg/ha,7 (7 - Good herbicidal effect)
same,ECHCG rating,[12]; dose 0.4 kg/ha,7 (7 - Good herbicidal effect)
same,ABUTH rating,[13]; dose 0.03 kg/ha,2 (2 - Slight effect)
same,ABUTH rating,[13]; dose 0.4 kg/ha,2 (2 - Slight effect)
same,LAMPU rating,[14]; dose 0.03 kg/ha,0 (0 - No effect)
same,LAMPU rating,[14]; dose 0.1 kg/ha,2 (2 - Slight effect)
same,LAMPU rating,[14]; dose 0.4 kg/ha,6 (6 - Herbicidal effect)
same,LAMPU rating,[15]; dose 0.025 kg/ha,6 (6 - Herbicidal effect)
same,LAMPU rating,[15]; dose 0.1 kg/ha,8 (8 - Approaching complete kill)
same,LAMPU rating,[15]; dose 0.4 kg/ha,9 (9 - Complete kill)
same,DIGSA rating,[16]; dose 0.03 kg/ha,2 (2 - Slight effect)
same,DIGSA rating,[16]; dose 0.1 kg/ha,9 (9 - Complete kill)
same,DIGSA rating,[16]; dose 0.4 kg/ha,9 (9 - Complete kill)
same,ECHCG rating,[17]; dose 0.013 kg/ha,0 (0 - No effect)
same,ECHCG rating,[17]; dose 0.025 kg/ha,1 (1 - Trace effect)
same,ECHCG rating,[17]; dose 0.1 kg/ha,4 (4 - Injury)
same,ECHCG rating,[17]; dose 0.4 kg/ha,7 (7 - Good herbicidal effect)
